Results: patent US12570607B2, “Compound as cyclin-dependent kinase 9 inhibitor and use thereof” (CSPC Zhongqi Pharmaceutical Technology (Shijiazhuang) Co., …, priority 2019, dated 2026)

The molecules below were run against hERG channel (Homo sapiens (Human), UniProt Q12809) (assay: In vitro hERG inhibitory activity, whole-cell patch-clamp on CHO-K1 cell line stably expressing the hERG channel). Conditions: not given.
Text: Rapid delayed rectifier current (IKr) was mainly mediated by the hERG ion channel and involved in human cardiomyocyte repolarization. Inhibition of IKr was the leading cause of the clinical QT interval prolongation syndrome, even acute cardiac dysrhythmia, and even sudden death. By utilizing a whole-cell patch-clamp technology, the blocking effect of a compound on the hERG channel was detected on a CHO-K1 cell line stably expressing the hERG channel, and the half inhibition concentration IC50 of the compound was determined. It was used as a part of the comprehensive cardiac safety assessment, and it was initially evaluated in the safety in vitro screen for cardiotoxicity.
This assay included the following aspects: • The hERG current was recorded on the CHO-K1 cell line stably expressing the hERG channel by utilizing the manual patch-clamp technology; • The inhibition rate at each concentration was calculated according to the hERG tail current; • The measurement was performed at 5 concentrations for each compound to calculate the IC50 value; • 3 cells were tested at each concentration; • One positive control drug was provided.
The hERG current was recorded by utilizing a whole-cell patch-clamp technology. The cell suspension was added to a dish, and the dish was placed on the object stage of an upright microscope. After adhesion of the cells, perfusion was performed with an extracellular fluid at a flow rate of […]. A glass microelectrode was pulled with a microelectrode puller via a two-step process and the pipette rip resistance was between 2-5 MΩ. After the whole-cell record was set up, the clamp potential was held at −80 mV. The cells were depolarized to +60 mV by applying a voltage stimulus and then repolarized to −50 mV to elicit the hERG tail current. All recordation was conducted after the current became stable. The extracellular perfusion administration was started from the lowest concentration, staying for 5-10 min at each concentration until the current was stable, and then conducted with the next concentration.

Sequence of hERG channel (Q12809 whole entry): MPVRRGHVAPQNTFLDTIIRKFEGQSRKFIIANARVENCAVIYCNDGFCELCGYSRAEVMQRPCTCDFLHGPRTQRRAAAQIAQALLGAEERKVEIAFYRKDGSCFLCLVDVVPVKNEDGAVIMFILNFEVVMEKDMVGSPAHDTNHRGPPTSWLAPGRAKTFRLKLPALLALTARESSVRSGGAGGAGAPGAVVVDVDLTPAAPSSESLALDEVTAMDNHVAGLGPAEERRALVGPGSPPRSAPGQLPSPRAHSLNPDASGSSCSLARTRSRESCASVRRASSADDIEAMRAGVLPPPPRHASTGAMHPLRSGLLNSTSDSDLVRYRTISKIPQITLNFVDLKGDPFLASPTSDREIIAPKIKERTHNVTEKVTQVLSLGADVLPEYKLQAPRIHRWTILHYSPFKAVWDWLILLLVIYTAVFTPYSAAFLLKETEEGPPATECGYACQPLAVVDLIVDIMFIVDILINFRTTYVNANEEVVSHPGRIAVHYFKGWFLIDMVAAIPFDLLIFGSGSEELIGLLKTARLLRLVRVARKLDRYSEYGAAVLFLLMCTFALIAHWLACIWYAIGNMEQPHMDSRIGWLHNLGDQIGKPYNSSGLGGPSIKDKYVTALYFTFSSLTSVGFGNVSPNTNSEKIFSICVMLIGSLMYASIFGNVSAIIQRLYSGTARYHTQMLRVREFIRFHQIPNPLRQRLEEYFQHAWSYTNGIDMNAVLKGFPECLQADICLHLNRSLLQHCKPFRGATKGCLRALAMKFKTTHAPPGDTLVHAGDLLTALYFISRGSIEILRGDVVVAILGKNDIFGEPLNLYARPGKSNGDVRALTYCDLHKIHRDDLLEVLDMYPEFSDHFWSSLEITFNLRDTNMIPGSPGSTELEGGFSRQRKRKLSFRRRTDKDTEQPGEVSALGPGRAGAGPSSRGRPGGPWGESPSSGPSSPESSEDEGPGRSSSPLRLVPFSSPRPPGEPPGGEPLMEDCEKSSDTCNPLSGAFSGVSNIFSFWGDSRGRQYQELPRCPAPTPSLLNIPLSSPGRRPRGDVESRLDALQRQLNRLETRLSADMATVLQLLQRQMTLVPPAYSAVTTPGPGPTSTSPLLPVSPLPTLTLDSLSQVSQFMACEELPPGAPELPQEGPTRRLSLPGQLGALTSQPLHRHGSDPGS

SMILES	IC50
COc1cc(F)ccc1-c1cc(NC(=O)C2CCCC(NC(C)=O)C2)ncc1F (stereo not drawn) [Compound 3]	> 30 µM
CC(=O)N[C@@H]1CCC[C@H](C(=O)Nc2cc(-c3ccc(F)cc3OC(C)C)c(F)cn2)C1 [Compound 8]	> 30 µM
COc1ccccc1-c1cc(NC(=O)[C@H]2CCC[C@@H](NC(C)=O)C2)ncc1F [Compound 17]	> 30 µM
CC(=O)N[C@@H]1CCC[C@H](C(=O)Nc2cc(-c3cccc4ccoc34)c(F)cn2)C1 [Compound 19]	> 30 µM
COc1cc(F)ccc1-c1cc(NC(=O)[C@H]2CCC[C@@H](NS(C)(=O)=O)C2)ncc1F [Compound 25]	> 30 µM
COc1cc(F)ccc1-c1cc(NC(=O)[C@H]2CCC[C@@H](NC(=O)CC#N)C2)ncc1F [Compound 32]	> 30 µM
COC(=O)N[C@@H]1CCC[C@H](C(=O)Nc2cc(-c3ccc(F)cc3OC)c(F)cn2)C1 [Compound 36]	> 30 µM
CNC(=O)N[C@@H]1CCC[C@H](C(=O)Nc2cc(-c3ccc(F)cc3OC)c(F)cn2)C1 [Compound 37]	> 30 µM
COc1cc(F)ccc1-c1cc(NC(=O)[C@H]2CCC[C@@H](NC(=O)c3ccccn3)C2)ncc1F [Compound 43]	> 30 µM
COc1cc(F)ccc1-c1cc(NC(=O)[C@H]2CCC[C@@H](NC(=O)[C@H](C)O)C2)ncc1F [Compound 48]	> 30 µM

The molecules below were run on MV4;11 cells (assay: In vitro MV4;11 cell proliferation inhibition (MTT method)). Conditions: Homo sapiens.
Assay type: cell-based
Text: The in vitro inhibitory effect of the synthesized compounds on cell proliferation was investigated.
The trade name of MTT was thiazole blue, which was a tetrazolium salt of a dye that could accept hydrogen atoms. […] Dimethyl sulfoxide could dissolve blue-purple complexes in cells, and its light absorption value could be measured at 490-550 nm wavelength with an enzyme-linked immunosorbent detector, which could indirectly reflect the number of cells. Within a certain range of the cell number, the amount of MTT crystals formed was proportional to the number of cells. The drug to be tested was successively diluted to different concentrations and added to a 96-well plate. The OD value was determined after the drug acted for a certain time. The size of the OD value could reflect the number of living cells, and its IC50 value was calculated with SPSS19.0.
Suspension of cells: Cells were […] by centrifugation and counted. A certain density of cell suspension was formulated with a complete culture medium, blown evenly, inoculated on a 96-well plate, 100 μL per well, and then cultured in a CO2 incubator.
An appropriate amount of the drug was added to a calculated amount of DMSO and dissolved. The resulting mixture was dispensed and stored at −20° C. The formulation concentration was 10 mM.
The stock solution of the compound having a concentration of 10 mM was diluted into different concentrations (8 concentrations) of solutions of the compound in DMSO (3-fold dilution, 20×final concentration). Each concentration of solutions (10 μL) of the compound in DMSO was respectively diluted with cell culture media (90 μL) to formulate working solutions (2×final concentration). Each concentration of working solutions (100 μL) of the compound was added to the 96-well plate inoculated with cells (1×final concentration, the highest final concentration is 1000 nM). The resulting plate continued to be cultured in a CO2 incubator.
The 96-well plate was taken out, and the density of cells was observed under a microscope. The test was performed with the MTT method.
MTT method: 20 μL of MTT was added to each well; the plate was cultured for about 4 hours in the incubator; the liquid in the well was discarded; 150 μL of DMSO was added into each well; the plate was placed in a shaker and shaken for 5-10 minutes, and the test was performed with a microplate reader at a wavelength of 550 nm. 7. Data analysis: IC50 value of the drug was calculated with SPSS19.0 statistical software.

SMILES	IC50
COc1cc(F)ccc1-c1cc(NC(=O)C2CCCC(NC(C)=O)C2)ncc1F (stereo not drawn) [Compound 3]	0.12 µM
COc1c(-c2cc(NC(=O)[C@H]3CCC[C@@H](NC(C)=O)C3)ncc2F)ccc(F)c1F [Compound 6]	0.179 µM
CC(=O)N[C@@H]1CCC[C@H](C(=O)Nc2cc(-c3ccc(F)cc3OC(C)C)c(F)cn2)C1 [Compound 8]	0.045 µM
COc1cc(O)ccc1-c1cc(NC(=O)[C@H]2CCC[C@@H](NC(C)=O)C2)ncc1F [Compound 15]	0.009 µM
COc1ccccc1-c1cc(NC(=O)[C@H]2CCC[C@@H](NC(C)=O)C2)ncc1F [Compound 17]	0.025 µM
CC(=O)N[C@@H]1CCC[C@H](C(=O)Nc2cc(-c3cccc4ccoc34)c(F)cn2)C1 [Compound 19]	0.026 µM
CC(=O)N[C@@H]1CCC[C@H](C(=O)Nc2cc(-c3ccc(F)nc3F)c(F)cn2)C1 [Compound 20]	0.067 µM
CC(=O)N[C@@H]1CCC[C@H](C(=O)Nc2cc(-c3cccc4[nH]ccc34)c(F)cn2)C1 [Compound 22]	0.036 µM
CC(=O)N[C@@H]1CCC[C@H](C(=O)Nc2cc(-c3ccnc4[nH]ccc34)c(F)cn2)C1 [Compound 23]	0.023 µM
CC(=O)N[C@@H]1CCC[C@H](C(=O)Nc2cc(-c3ccnc4c3ccn4C)c(F)cn2)C1 [Compound 24]	0.119 µM
COc1cc(F)ccc1-c1cc(NC(=O)[C@H]2CCC[C@@H](NS(C)(=O)=O)C2)ncc1F [Compound 25]	0.034 µM
COc1cc(F)c(F)cc1-c1cc(NC(=O)[C@H]2CCC[C@@H](NS(C)(=O)=O)C2)ncc1F [Compound 26]	0.089 µM
COc1cc(F)ccc1-c1cc(NC(=O)[C@H]2CCC[C@@H](NC(=O)CC#N)C2)ncc1F [Compound 32]	0.011 µM
COc1cc(F)ccc1-c1cc(NC(=O)[C@H]2CCC[C@@H](NC(=O)C3(C#N)CCC3)C2)ncc1F [Compound 34]	0.021 µM
COc1cc(F)ccc1-c1cc(NC(=O)[C@H]2CCC[C@@H](NC(=O)C3(C#N)CCOCC3)C2)ncc1F [Compound 35]	0.032 µM
COC(=O)N[C@@H]1CCC[C@H](C(=O)Nc2cc(-c3ccc(F)cc3OC)c(F)cn2)C1 [Compound 36]	0.044 µM
CNC(=O)N[C@@H]1CCC[C@H](C(=O)Nc2cc(-c3ccc(F)cc3OC)c(F)cn2)C1 [Compound 37]	0.052 µM
COc1cc(F)ccc1-c1cc(NC(=O)[C@H]2CCC[C@@H](NC(=O)N(C)C)C2)ncc1F [Compound 38]	0.01 µM
COc1cc(F)ccc1-c1cc(NC(=O)[C@H]2CCC[C@@H](NC(=O)CN(C)C)C2)ncc1F [Compound 40]	0.008 µM
COc1cc(F)ccc1-c1cc(NC(=O)[C@H]2CCC[C@@H](NC(=O)Nc3cc(C)no3)C2)ncc1F [Compound 41]	0.045 µM
COc1cc(F)ccc1-c1cc(NC(=O)[C@H]2CCC[C@@H](NC(=O)C(F)(F)F)C2)ncc1F [Compound 42]	0.017 µM
COc1cc(F)ccc1-c1cc(NC(=O)[C@H]2CCC[C@@H](NC(=O)c3ccccn3)C2)ncc1F [Compound 43]	0.022 µM
CCOCC(=O)N[C@@H]1CCC[C@H](C(=O)Nc2cc(-c3ccc(F)cc3OC)c(F)cn2)C1 [Compound 46]	0.017 µM
COc1cc(F)ccc1-c1cc(NC(=O)[C@H]2CCC[C@@H](NC(=O)COC(C)=O)C2)ncc1F [Compound 47]	0.013 µM
COc1cc(F)ccc1-c1cc(NC(=O)[C@H]2CCC[C@@H](NC(=O)[C@H](C)O)C2)ncc1F [Compound 48]	0.026 µM

SMILES	IC50
COc1cc(F)ccc1-c1cc(NC(=O)[C@H]2CCC[C@@H](NC(=O)[C@@H](C)O)C2)ncc1F [Compound 49]	0.072 µM
COc1cc(F)ccc1-c1cc(NC(=O)[C@H]2CCC[C@@H](NC(=O)CCO)C2)ncc1F [Compound 50]	0.037 µM
COc1cc(F)ccc1-c1cc(NC(=O)[C@H]2CCC[C@@H](NC(=O)C3(O)CC3)C2)ncc1F [Compound 51]	0.013 µM
COc1cc(F)ccc1-c1cc(NC(=O)[C@H]2CCC[C@@H](NC(=O)C3COC3)C2)ncc1F [Compound 52]	0.008 µM
COc1cc(F)ccc1-c1cc(NC(=O)[C@H]2CCC[C@@H](NC(=O)C3(C)CC3)C2)ncc1F [Compound 53]	0.01 µM
COc1cc(F)ccc1-c1cc(NC(=O)[C@H]2CCC[C@@H](NC(=O)C3(F)CC3)C2)ncc1F [Compound 54]	0.012 µM
COc1cc(F)ccc1-c1cc(NC(=O)[C@H]2CCC[C@@H](NC(=O)C3(C(F)(F)F)CC3)C2)ncc1F [Compound 55]	0.014 µM
COc1cc(F)ccc1-c1cc(NC(=O)[C@H]2CCC[C@@H](NC(=O)CN)C2)ncc1F [Compound 56]	0.02 µM
COc1cc(F)ccc1-c1cc(NC(=O)[C@H]2CCC[C@@H](NC(=O)CNC(C)=O)C2)ncc1F [Compound 57]	0.1 µM
COc1cc(F)ccc1-c1cc(NC(=O)[C@H]2CCC[C@@H](NC(=O)[C@H](CC(C)C)NC(C)=O)C2)ncc1F [Compound 58]	0.086 µM
COc1cc(F)ccc1-c1cc(NC(=O)[C@H]2CCC[C@@H](NC(=O)[C@@H](CC(C)C)NC(C)=O)C2)ncc1F [Compound 59]	0.006 µM
COc1cc(F)ccc1-c1cc(NC(=O)[C@H]2CCC[C@@H](NC(=O)C3CCN(C)CC3)C2)ncc1F [Compound 60]	0.012 µM
COc1cc(F)ccc1-c1cc(NC(=O)[C@H]2CCC[C@@H](NC(=O)CC3CC3)C2)ncc1F [Compound 61]	0.048 µM
COc1cc(F)ccc1-c1cc(NC(=O)[C@H]2CCC[C@@H](NC(=O)C3CC3)C2)ncc1F [Compound 62]	0.006 µM
COc1cc(F)ccc1-c1cc(NC(=O)[C@H]2CCC[C@@H](NC(=O)C(=O)C3CC3)C2)ncc1F [Compound 63]	0.096 µM
C=CC(=O)N[C@@H]1CCC[C@H](C(=O)Nc2cc(-c3ccc(F)cc3OC)c(F)cn2)C1 [Compound 64]	0.009 µM
C#CC(=O)N[C@@H]1CCC[C@H](C(=O)Nc2cc(-c3ccc(F)cc3OC)c(F)cn2)C1 [Compound 65]	0.006 µM
COc1cc(F)ccc1-c1cc(NC(=O)[C@H]2CCC[C@@H](NC(=O)/C=C/CN(C)C)C2)ncc1F [Compound 66]	0.034 µM
COc1cc(F)ccc1-c1cc(NC(=O)[C@H]2CCC[C@@H](Nc3nccs3)C2)ncc1F [Compound 69]	0.028 µM
COc1cc(F)ccc1-c1cc(NC(=O)N2CCC[C@@H](NC(C)=O)C2)ncc1F [Compound 70]	0.259 µM
COc1cc(F)ccc1-c1cc(NC(=O)[C@H]2CCC[C@@H](NC(C)=O)C2)ncc1Cl [Compound 71]	0.016 µM
COc1cc(F)ccc1-c1cc(NC(=O)[C@H]2CCC[C@@H](NC(=O)C3(C#N)CN(C)C3)C2)ncc1F [Compound 77]	0.021 µM
COc1cc(F)ccc1-c1cc(NC(=O)[C@H]2CCC[C@@H](NC(=O)CS)C2)ncc1F [Compound 81]	0.067 µM
COc1cc(F)ccc1-c1cc(NC(=O)[C@H]2CCC[C@@H](NC(=O)C3(C#N)CCN(C)CC3)C2)ncc1F [Compound 82]	0.021 µM
COc1cc(F)ccc1-c1cc(NC(=O)[C@H]2CCC[C@@H](NC(=O)C(C)(C)O)C2)ncc1F [Compound 83]	0.014 µM
